This experiment has as its target T1, androgen receptor (Homo sapiens, UniProt P10275, T878A).
T1 construct: host or cells: LNCaP.FGC
Kind of experiment: Androgen receptor degradation assay using Western blot analysis. The class given is cell-based. Here is the method:
Cells not treated with any of the above-mentioned compounds are used as a negative control.
The internal loading control GAPDH was detected using a mouse monoclonal antibody (1:5000) (GTX627408, GeneTex International Corp., HsinChu City, Taiwan R.O.C.) and a goat anti-mouse HRP-conjugated secondary antibody (1:5000 dilution) (C04001, Croyez Bioscience Co., Ltd., Taipei City, Taiwan R.O.C.).
AR remaining percentage was determined by the intensity difference of AR signals (each was normalized by the corresponding internal loading control GAPDH) between the protein samples from the untreated cells (100%) and those from the treated cells. “Cpd. #” indicates the compound number hereinabove.
In addition, several compounds were selected to prepare a treatment stock solutions at 100 nM in RPMI medium. The treatment stock solutions were separately serially diluted (10×) with RPMI medium for treating LNCaP.FGC cells seeded with 2×10^5 cells per well in 24-well tissue culture plates. A calibration curve was determined by the serial diluted samples for each compound, and the concentration needed for 50% AR degradation (AR DC50) for each compound was calculated.
(In general: Immunoblotting shows a protein as a band on a membrane.)

The mark [1] stands for this setting: 24 h, read-out: Androgen Receptor Remaining (%), LNCaP.FGC cells, 100 nM, 24 hr, normalized to GAPDH, untreated cells = 100%.
Where [2] appears, read: read-out: AR DC50 (concentration needed for 50% AR degradation); LNCaP.FGC cells, serial 10x dilutions from 100 nM.
The mark [3] stands for this setting: 24 h, LNCaP.FGC cells, 100 nM, 24 hr, normalized to GAPDH, untreated cells = 100%; read-out: Androgen Receptor Remaining (%).
Setting [4] is: LNCaP.FGC cells, serial 10x dilutions from 100 nM; read-out: AR DC50 (concentration needed for 50% AR degradation).

Like-named read-outs stand apart in the source and are kept apart here.

T1 sequence (P10275 whole entry T878A): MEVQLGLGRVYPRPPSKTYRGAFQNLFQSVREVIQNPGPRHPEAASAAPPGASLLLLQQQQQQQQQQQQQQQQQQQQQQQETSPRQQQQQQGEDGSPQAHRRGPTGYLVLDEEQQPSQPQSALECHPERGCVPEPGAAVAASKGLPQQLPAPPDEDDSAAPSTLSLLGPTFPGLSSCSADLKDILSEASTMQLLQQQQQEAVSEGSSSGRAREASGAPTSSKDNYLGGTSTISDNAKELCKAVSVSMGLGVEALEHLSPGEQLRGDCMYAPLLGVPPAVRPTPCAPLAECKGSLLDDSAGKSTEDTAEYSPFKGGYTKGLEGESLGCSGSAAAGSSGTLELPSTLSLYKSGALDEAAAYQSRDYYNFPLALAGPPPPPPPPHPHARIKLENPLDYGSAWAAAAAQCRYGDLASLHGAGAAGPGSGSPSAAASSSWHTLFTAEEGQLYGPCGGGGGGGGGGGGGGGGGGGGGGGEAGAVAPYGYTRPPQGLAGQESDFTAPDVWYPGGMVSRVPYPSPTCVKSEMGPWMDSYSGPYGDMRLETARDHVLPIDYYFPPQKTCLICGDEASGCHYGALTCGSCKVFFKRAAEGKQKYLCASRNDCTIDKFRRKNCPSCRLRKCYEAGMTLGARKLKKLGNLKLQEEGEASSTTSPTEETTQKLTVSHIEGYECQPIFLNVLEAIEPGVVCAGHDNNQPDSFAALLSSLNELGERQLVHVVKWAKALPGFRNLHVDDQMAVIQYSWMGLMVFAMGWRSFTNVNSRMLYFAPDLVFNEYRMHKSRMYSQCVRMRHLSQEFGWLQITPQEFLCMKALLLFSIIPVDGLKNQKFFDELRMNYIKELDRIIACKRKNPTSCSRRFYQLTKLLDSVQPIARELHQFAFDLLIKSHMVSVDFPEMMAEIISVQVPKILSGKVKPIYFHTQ
T1 sequence (Q96SW2 whole entry partner): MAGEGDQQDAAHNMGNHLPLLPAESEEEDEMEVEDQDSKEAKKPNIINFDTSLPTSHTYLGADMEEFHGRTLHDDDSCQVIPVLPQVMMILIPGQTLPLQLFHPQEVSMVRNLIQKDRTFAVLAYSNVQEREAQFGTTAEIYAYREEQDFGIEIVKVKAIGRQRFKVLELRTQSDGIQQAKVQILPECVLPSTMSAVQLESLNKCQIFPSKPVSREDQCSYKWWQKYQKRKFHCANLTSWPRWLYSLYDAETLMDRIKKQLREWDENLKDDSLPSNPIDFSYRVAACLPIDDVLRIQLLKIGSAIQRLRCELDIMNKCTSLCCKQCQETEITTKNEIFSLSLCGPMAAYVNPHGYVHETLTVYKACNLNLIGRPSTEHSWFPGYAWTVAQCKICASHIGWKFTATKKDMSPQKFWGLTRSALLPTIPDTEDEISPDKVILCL

Take `CCn1c2c(c3ccc(OCCCC4CCN(c5ccc(C(=O)N[C@H]6CC[C@H](Oc7ccc(C#N)c(Cl)c7)CC6)nn5)CC4)cc31)C(=O)N(C1CCC(=O)NC1=O)C2=O` (stereo partly shown) [Compound 163]: the remaining activity at 0.1 µM under setting [1] came to 41%.

Regarding `CCn1c2c(c3ccc(OCCCN4CCC5(CCN(c6ccc(C(=O)N[C@H]7CC[C@H](Oc8ccc(C#N)c(Cl)c8)CC7)nn6)C5)C4)cc31)C(=O)N(C1CCC(=O)NC1=O)C2=O` (stereo partly shown) [Compound 132], the remaining activity at 0.1 µM under setting [1] was 7%. The DC50 under setting [2] lay in the range of 10 to 25 nM.

For the molecule `CCn1c2c(c3ccc(OCCCN4CCC(C5CCN(c6ccc(C(=O)N[C@H]7CC[C@H](Oc8ccc(C#N)c(Cl)c8)CC7)nn6)CC5)CC4)cc31)C(=O)N(C1CCC(=O)NC1=O)C2=O` (stereo partly shown) [Compound 157], under setting [1], the remaining activity at 0.1 µM was determined as 18%. The DC50 under setting [2] lay in the range of 10 to 25 nM.

Take `CCn1c2c(c3ccc(OCCCN4CCN(c5ccc(C(=O)N[C@H]6CC[C@H](Oc7ccc(C#N)c(Cl)c7)CC6)nn5)CC4=O)cc31)C(=O)N(C1CCC(=O)NC1=O)C2=O` (stereo partly shown) [Compound 151]: under setting [1], the remaining activity at 0.1 µM was found to be 57%.

Consider `CCn1c2c(c3ccc(OCCCCN4CCCN(c5ccc(C(=O)N[C@H]6CC[C@H](N(C)c7ccc(C#N)c(Cl)c7)CC6)nn5)CC4)cc31)C(=O)N(C1CCC(=O)NC1=O)C2=O` (stereo partly shown) [Compound 112], for which the remaining activity at 0.1 µM under setting [1] was 32%. The DC50 under setting [2] lay in the range of 10 to 25 nM.

For `CCn1c2c(c3ccc(OCCN4CC5(CCN(c6ccc(C(=O)N[C@H]7CC[C@H](Oc8ccc(C#N)c(Cl)c8)CC7)nn6)CC5)C4)cc31)C(=O)N(C1CCC(=O)NC1=O)C2=O` (stereo partly shown) [Compound 80], the remaining activity at 0.1 µM under setting [1] came to 22%. The DC50 under setting [2] lay in the range of 10 to 25 nM.

For `CCn1c2c(c3ccc(OC4CCN(CC5CCN(c6ccc(C(=O)N[C@H]7CC[C@@H](Oc8ccc(C#N)c(Cl)c8)CC7)nn6)CC5)CC4)cc31)C(=O)N(C1CCC(=O)NC1=O)C2=O` (stereo partly shown) [Compound 204], the DC50 under setting [2] is 10 to 25 nM.

`CCn1c2c(c3ccc(OCCOCCN4CCN(c5ccc(C(=O)N[C@H]6CC[C@H](N(C)c7ccc(C#N)c(Cl)c7)CC6)nn5)CC4)cc31)C(=O)N(C1CCC(=O)NC1=O)C2=O` (stereo partly shown) [Compound 114]: the remaining activity at 0.1 µM under setting [1] is 21%. Further, the DC50 under setting [2] lay within 10 to 25 nM.

On to `CCn1c2c(c3ccc(OCCCN4CCC(c5ncc(C(=O)N[C@H]6CC[C@H](Oc7ccc(C#N)c(Cl)c7)CC6)cn5)CC4)cc31)C(=O)N(C1CCC(=O)NC1=O)C2=O` (stereo partly shown) [Compound 38], for which the DC50 under setting [2] was in the range of 25 to 100 nM.

With `CCn1c2c(c3ccc(OCCCCN4C5CCC4CN(c4ccc(C(=O)N[C@H]6CC[C@H](Oc7ccc(C#N)c(Cl)c7)CC6)nn4)C5)cc31)C(=O)N(C1CCC(=O)NC1=O)C2=O` (stereo partly shown) [Compound 100], the remaining activity at 0.1 µM under setting [1] is 44%. Moreover, the DC50 under setting [2] was in the range of 25 to 100 nM.

Regarding `Cn1c2c(c3ccc(NC(=O)CN4CCC5(CC4)CN(c4ccc(C(=O)N[C@H]6C(C)(C)[C@H](Oc7ccc(C#N)c(Cl)c7)C6(C)C)nn4)C5)cc31)C(=O)N(C1CCC(=O)NC1=O)C2=O` (stereo partly shown) [Compound 69], the remaining activity at 0.1 µM under setting [3] turned out to be 51%.

On to `CC[C@H]1CN(CCCOc2ccc3c4c(n(CC)c3c2)C(=O)N(C2CCC(=O)NC2=O)C4=O)CCN1c1ccc(C(=O)N[C@H]2CC[C@H](Oc3ccc(C#N)c(Cl)c3)CC2)nn1` (stereo partly shown) [Compound 60], for which the remaining activity at 0.1 µM under setting [1] turned out to be 57%.

Take `CCn1c2c(c3ccc(OCC(=O)N4CCC5(CCN(c6ccc(C(=O)N[C@H]7CC[C@H](Oc8ccc(C#N)c(Cl)c8)CC7)nn6)C5)C4)cc31)C(=O)N(C1CCC(=O)NC1=O)C2=O` (stereo partly shown) [Compound 136]: under setting [1], the remaining activity at 0.1 µM is 17%. In addition, the DC50 under setting [2] fell in the range of 25 to 100 nM.

Consider `Cn1c2c(c3ccc(NC(=O)CN4CCN(c5ccc(C(=O)N[C@H]6CC[C@H](Oc7ccc(C#N)c(Cl)c7)CC6)nn5)CC4)cc31)C(=O)N(C1CCC(=O)NC1=O)C2=O` (stereo partly shown) [Compound 41], for which the remaining activity at 0.1 µM under setting [3] came to 81%.

For `CCn1c2c(c3ccc(OCCN4CCN(c5ccc(C(=O)N[C@H]6CC[C@H](Oc7ccc(C#N)c(Cl)c7)CC6)nn5)C[C@H]4C)cc31)C(=O)N(C1CCC(=O)NC1=O)C2=O` (stereo partly shown) [Compound 73], the remaining activity at 0.1 µM under setting [1] is 41%. Also, the DC50 under setting [2] was 25 to 100 nM.

As to `Cn1c2c(c3cc(OCCN4CCN(c5ccc(C(=O)N[C@H]6C(C)(C)[C@H](Oc7ccc(C#N)c(Cl)c7)C6(C)C)cc5)CC4)ccc31)C(=O)N(C1CCC(=O)NC1=O)C2=O` (stereo partly shown) [Compound 15], the remaining activity at 0.1 µM under setting [3] came out at 106%.

Turning to `Cn1c2c(c3ccc(OCCCN4CCN(c5ccc(C(=O)N[C@H]6CC[C@H](Oc7ccc(C#N)c(Cl)c7)CC6)nn5)CC4)cc31)C(=O)N(C1CCC(=O)NC1=O)C2=O` (stereo partly shown) [Compound 207], the DC50 under setting [4] was less than 10 nM.

For the molecule `Cn1c2c(c3ccc(OC4CCN(CC5CN(c6ccc(C(=O)N[C@H]7CC[C@H](Oc8ccc(C#N)c(Cl)c8)CC7)nn6)C5)CC4)cc31)C(=O)N(C1CCC(=O)NC1=O)C2=O` (stereo partly shown) [Compound 217], the DC50 under setting [4] lay within 10 to 25 nM.

Consider `Cn1c2c(c3ccc(OC4CCN(CC5CCN(c6ccc(C(=O)N[C@H]7CC[C@@H](Oc8ccc(C#N)c(Cl)c8)CC7)nn6)CC5)CC4)cc31)C(=O)N(C1CCC(=O)NC1=O)C2=O` (stereo partly shown) [Compound 216], for which, under setting [4], the DC50 is less than 10 nM.

On to `CCn1c2c(c3ccc(OCCCN4CCN(c5ccc(C(=O)N[C@H]6C(C)(C)[C@H](Oc7ccc(C#N)c(Cl)c7)C6(C)C)nn5)CC4)cc31)C(=O)N(C1CCC(=O)NC1=O)C2=O` (stereo partly shown) [Compound 37], for which the remaining activity at 0.1 µM under setting [1] turned out to be 55%.

With `CCn1c2c(c3ccc(OC(C)CCN4CCC(c5ccc(C(=O)N[C@H]6CC[C@H](Oc7ccc(C#N)c(Cl)c7)CC6)nn5)CC4)cc31)C(=O)N(C1CCC(=O)NC1=O)C2=O` (stereo partly shown) [Compound 211], the DC50 under setting [2] was less than 10 nM.

In the case of `CCn1c2c(c3ccc(OCCN4CCC(C5CCN(c6ccc(C(=O)N[C@H]7CC[C@H](N(C)c8ccc(C#N)c(Cl)c8)CC7)nn6)CC5)CC4)cc31)C(=O)N(C1CCC(=O)NC1=O)C2=O` (stereo partly shown) [Compound 166], the remaining activity at 0.1 µM under setting [1] amounted to 47%.

Take `CCn1c2c(c3ccc(OCCCN4CCC5(CC4)CN(c4ccc(C(=O)N[C@H]6CC[C@H](Oc7ccc(C#N)c(Cl)c7)CC6)nn4)C5)cc31)C(=O)N(C1CCC(=O)NC1=O)C2=O` (stereo partly shown) [Compound 48]: the remaining activity at 0.1 µM under setting [1] turned out to be 20%. In addition, the DC50 under setting [2] is less than 10 nM.

With `CCn1c2c(c3ccc(OCCCN4CCC5(CC4)CN(c4ccc(C(=O)N[C@H]6CC[C@H](N(C)c7ccc(C#N)c(Cl)c7)CC6)nn4)C5)cc31)C(=O)N(C1CCC(=O)NC1=O)C2=O` (stereo partly shown) [Compound 107], the remaining activity at 0.1 µM under setting [1] worked out at 15%.

For the molecule `CCn1c2c(c3ccc(OCCCCCN4CCN(c5ccc(C(=O)N[C@H]6CC[C@H](N(C)c7ccc(C#N)c(Cl)c7)CC6)nn5)CC4)cc31)C(=O)N(C1CCC(=O)NC1=O)C2=O` (stereo partly shown) [Compound 116], the remaining activity at 0.1 µM under setting [1] was 37%. The DC50 under setting [2] is 25 to 100 nM.

Consider `CCn1c2c(c3ccc(OCCN4CCCN(c5ccc(C(=O)N[C@H]6CC[C@H](Oc7ccc(C#N)c(Cl)c7)CC6)nn5)CC4)cc31)C(=O)N(C1CCC(=O)NC1=O)C2=O` (stereo partly shown) [Compound 52], for which, under setting [1], the remaining activity at 0.1 µM is 42%. Moreover, the DC50 under setting [2] was in the range of 10 to 25 nM.

As to `C=Nc1ccc(O[C@H]2CC[C@H](NC(=O)c3ccc(N4CC5(CCN(CCCOc6ccc7c8c(n(CC(F)F)c7c6)C(=O)N(C6CCC(=O)NC6=O)C8=O)CC5)C4)nn3)CC2)cc1Cl` (stereo partly shown) [Compound 93], under setting [1], the remaining activity at 0.1 µM is 11%. In addition, the DC50 under setting [2] was 25 to 100 nM.

On to `CCn1c2c(c3cc(OCCN4CCN(c5ccc(C(=O)N[C@H]6C(C)(C)[C@H](Oc7ccc(C#N)c(Cl)c7)C6(C)C)cn5)CC4)ccc31)C(=O)N(C1CCC(=O)NC1=O)C2=O` (stereo partly shown) [Compound 5], for which the remaining activity at 0.1 µM under setting [1] was determined as 51%.

For the origin of these results see US20250197409A1, “BIFUNCTIONAL COMPOUND AND PHARMACEUTICAL COMPOSITION COMPRISING THE BIFUNCTIONAL COMPOUND, AND METHOD FOR TREATING ANDROGEN RECEPTOR RELATED DISEASE BY USING THE SAME” (ANHORN MEDICINES CO., LTD., priority 2022, published 2025).
